Laboratory results reported in article PMC7873226, “Molecular mechanism and structural basis of small-molecule modulation of the gating of acid-sensing ion channel 1” (Communications Biology, 2021).
Read-outs that look alike come from different tables or passages of the source.

Target: T1, rat ASIC1a (Rattus norvegicus, UniProt P55926)
T1 construct: expressed in transfected cells
T1 sequence (P55926 1-526): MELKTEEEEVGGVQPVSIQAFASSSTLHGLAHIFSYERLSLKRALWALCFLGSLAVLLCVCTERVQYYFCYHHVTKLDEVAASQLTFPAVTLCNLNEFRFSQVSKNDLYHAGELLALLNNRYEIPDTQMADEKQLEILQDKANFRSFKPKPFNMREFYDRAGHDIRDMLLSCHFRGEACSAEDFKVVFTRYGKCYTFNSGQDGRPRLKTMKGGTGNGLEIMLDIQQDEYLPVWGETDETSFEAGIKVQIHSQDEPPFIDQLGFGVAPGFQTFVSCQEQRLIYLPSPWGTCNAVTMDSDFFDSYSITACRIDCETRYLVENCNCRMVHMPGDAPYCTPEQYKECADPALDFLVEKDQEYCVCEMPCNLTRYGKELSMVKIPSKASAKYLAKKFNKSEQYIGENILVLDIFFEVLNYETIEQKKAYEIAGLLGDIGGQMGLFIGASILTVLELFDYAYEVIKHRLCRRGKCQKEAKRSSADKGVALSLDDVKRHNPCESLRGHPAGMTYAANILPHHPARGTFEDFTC
Test: Whole-cell patch clamp: inhibition of acid-induced current in CHO cells stably expressing rat ASIC1a
Assay type: cell-based
Method: Chinese Hamster Ovary (CHO) cells stably expressing rat ASIC1a were cultured in Ham’s F12, supplemented with 10% FBS, 1% penicillin–streptomycin and 500 µg/mL G418 and incubated at 37 °C with 5% CO2. Transient transfections of rASIC1a and cASIC1 wild-type or mutant channels in CHO cells were performed with Lipofectamine 3000 (Thermo Fisher Scientific) according to the manufacturer’s recommendations. The green fluorescent protein (GFP) cDNA (at 1/10 the amount of channel cDNA) was co-transfected with channel cDNA to aid the identification of transfected cells under the microscope in patch clamp experiments. All cDNAs were sequence verified.
Cells were freshly dissociated with CellStripper (Corning) and dispersed in a chamber on the stage of an inverted microscope. Upon formation of the whole-cell conformation, the cell was lifted from the bottom of the chamber and placed at the tip of a tubing perfusing an extracellular solution containing (in mM): 149 NaCl, 2 CaCl2, 4 KCl, 1 MgCl2, 5 glucose, 10 HEPES, pH 7.4, 310 mOsm/L. Extracellular solutions at more basic or acidic pHs were made by titrating the above pH 7.4 solution with NaOH or HCl (5 mM MES was added to solutions at pH 6.0 and lower). Pipette electrodes were filled with an intracellular solution containing (in mM): 135 KCl, 4 MgATP, 0.3 Na2GTP, 10 EGTA, and 20 HEPES, pH 7.2, 290 mOsm/L.
All recordings were performed at room temperature using an Axopatch 200B amplifier and pClamp 11 software (Molecular Devices). Currents were measured by whole-cell patch clamp, digitized at 10 kHz and lowpass filtered at 2 kHz. Series resistance was 75% compensated. Responses were elicited by rapid perfusion of acidic solutions using the SF-77B Fast-Step Perfusion device (Warner Instruments) for 40 ms once every 30 s (unless indicated otherwise) and recorded till steady state was reached. The holding potential was 0 mV unless indicated otherwise.
Baseline values (i.e., current amplitudes at the conditioning pH) were subtracted to obtain responses evoked by the test pH. Responses were normalized for each cell before averaging (see figure legends for more detail on normalization for each type of experiment). Concentration–response data were fitted to a logistic function of the form: R = (A1–A2)/(1 + (C/C0)^h)+A2, where R is the normalized response, C is either pH or compound concentration, C0 is the pH/concentration at which half-maximal response occurs (pH50 or IC50), h is the Hill coefficient, and A1 and A2 are constants. Kinetic parameters were obtained by fitting the data with either a single or double exponential function. Fitted data are shown as solid, dashed, or dotted curves.

inhibition at 0.01 µM (CHO, pH 6, pH6.0, 10 nM, read-out: current inhibition, mean (source data Fig. 1e)): 23.5%
inhibition at 0.03 µM (CHO, pH 6, pH6.0, 30 nM, read-out: current inhibition, mean (source data Fig. 1e)): 45.7%
inhibition at 0.1 µM (CHO, pH 6, pH6.0, 100 nM, read-out: current inhibition, mean (source data Fig. 1e)): 66.3%
inhibition at 0.3 µM (CHO, pH 6, pH6.0, 300 nM, read-out: current inhibition, mean (source data Fig. 1e)): 78.3%
inhibition at 1 µM (CHO, pH 6, pH6.0, 1000 nM, read-out: current inhibition, mean (source data Fig. 1e)): 80.7%
inhibition at 0.003 µM (CHO, pH 7.1, pH7.1, 3 nM, read-out: current inhibition, mean (source data Fig. 1e)): 45.1%
inhibition at 0.01 µM (CHO, pH 7.1, pH7.1, 10 nM, read-out: current inhibition, mean (source data Fig. 1e)): 74.6%
inhibition at 0.03 µM (CHO, pH 7.1, pH7.1, 30 nM, read-out: current inhibition, mean (source data Fig. 1e)): 94.4%
inhibition at 0.1 µM (CHO, pH 7.1, pH7.1, 100 nM, read-out: current inhibition, mean (source data Fig. 1e)): 99.1%
max %inhibition (test pH 6.0, holding pH 8.2): 83.1 ± 1.2%
IC50 (test pH 6.0, holding pH 8.2, WT): 24.9 ± 1.3 nM
IC50 (test pH 7.1, holding pH 8.2): 3.6 ± 0.2 nM
max %inhibition (test pH 7.1, holding pH 8.2): 100%
SMILES: COc1ccc(Oc2ccc(-c3nc4cc(C(=N)N)ccc4[nH]3)cc2)cc1OC [JNJ-799760]
